molecular target: phosphorylated active hERK2 enzyme (Homo sapiens (Human), UniProt P28482); assay: Active Human ERK2 (hERK2) Activity Assay (IMAP-FP); assay type: biochemical; details: Table 6, 0.5 nM hERK2, 30 μM ATP, 10 point titration, read-out: AERK2 IC50
Outline: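 IMAP detection beads in buffer with 24 mM NaCl stopped the reaction, and fluorescence polarization was read after 60 min binding.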

Chain of phosphorylated active hERK2 enzyme (P28482 whole entry): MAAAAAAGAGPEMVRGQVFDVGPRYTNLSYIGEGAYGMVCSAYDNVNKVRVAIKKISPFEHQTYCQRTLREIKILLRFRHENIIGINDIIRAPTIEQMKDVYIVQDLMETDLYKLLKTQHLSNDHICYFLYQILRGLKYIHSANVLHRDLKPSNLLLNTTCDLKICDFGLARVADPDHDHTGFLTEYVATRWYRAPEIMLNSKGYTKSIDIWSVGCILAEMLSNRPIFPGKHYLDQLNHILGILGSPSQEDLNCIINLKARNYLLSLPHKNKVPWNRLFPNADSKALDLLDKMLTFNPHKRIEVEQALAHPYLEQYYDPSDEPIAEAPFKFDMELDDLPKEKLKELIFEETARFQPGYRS

Row | SMILES | IC50
1 | CCN1CCc2nc(NC(=O)N[C@H](C)c3ccccc3)cc3[nH]nc1c23 [Example 141, (R)-1-(3-ethyl-1,3,4,5-tetrahydropyrazolo[3,4,5-de][1,6]naphthyridin-7-yl)-3-(1-phenylethyl)urea] | 15.4 nM
2 | CNc1n[nH]c2cc(NC(=O)N[C@H](c3ccccc3)[C@@H]3CCCO3)ncc12 [Example 146, 1-(3-(methylamino)-1H-pyrazolo[4,3-c]pyridin-6-yl)-3-((R)-phenyl((S)-tetrahydrofuran-2-yl)methyl)urea] | 115 nM
3 | CNc1n[nH]c2cc(NC(=O)N[C@H](c3ccccc3)[C@H]3CCCO3)ncc12 [Example 147, 1-(3-(methylamino)-1H-pyrazolo[4,3-c]pyridin-6-yl)-3-((R)-phenyl((R)-tetrahydrofuran-2-yl)methyl)urea] | 246 nM
4 | CCNc1n[nH]c2cc(NC(=O)N[C@H](c3ccccc3)[C@H]3CCCO3)ncc12 [Example 150, 1-[3-(ethylamino)-1H-pyrazolo[4,3-c]pyridin-6-yl]-3-{(R)-phenyl[(2R)-tetrahydrofuran-2-yl]methyl}urea] | 359 nM
5 | CCNc1n[nH]c2cc(NC(=O)N[C@H](c3ccccc3)[C@@H]3CCCO3)ncc12 [Example 151, 1-[3-(ethylamino)-1H-pyrazolo[4,3-c]pyridin-6-yl]-3-{(R)-phenyl[(2S)-tetrahydrofuran-2-yl]methyl}urea] | 315 nM
6 | Nc1n[nH]c2cc(NC(=O)N[C@H](c3ccccc3)[C@H]3CCCO3)ncc12 [Example 154, 1-(3-amino-1H-pyrazolo[4,3-c]pyridin-6-yl)-3-{(R)-phenyl[(2R)-tetrahydrofuran-2-yl]methyl}urea] | 435 nM
7 | Nc1n[nH]c2cc(NC(=O)N[C@H](c3ccccc3)[C@@H]3CCCO3)ncc12 [Example 155, 1-(3-amino-1H-pyrazolo[4,3-c]pyridin-6-yl)-3-{(R)-phenyl[(2S)-tetrahydrofuran-2-yl]methyl}urea] | 495 nM
8 | COC[C@@H](NC(=O)Nc1cc2[nH]nc(N(CC3CCC3)CC3CCC3)c2cn1)c1ccccc1 [Example 157, 1-{3-[bis(cyclobutyl-methyl)amino]-1H-pyrazolo[4,3-c]pyridin-6-yl}-3-[(1S)-2-methoxy-1-phenylethyl]urea] | 93.2 nM
9 | C[C@@H](NC(=O)Nc1cc2[nH]nc(N(CC3CC3)CC3CC3)c2cn1)c1ccccc1 [Example 160, 1-{3-[bis(cyclopropyl-methyl)amino]-1H-pyrazolo[4,3-c]-pyridin-6-yl}-3-[(1R)-1-phenylethyl]urea] | 279 nM
10 | C[C@@H](NC(=O)Nc1cc2[nH]nc(NC3CCNCC3)c2cn1)c1ccccc1 [Example 162, 1-[(1R)-1-phenylethyl]-3-[3-(piperidin-4-ylamino)-1H-pyrazolo[4,3-c]-pyridin-6-yl]urea] | 165 nM
11 | C[C@@H](NC(=O)Nc1cc2[nH]nc(NC3CCCNC3)c2cn1)c1ccccc1 (stereo partly drawn) [Example 164, 1-[(1R)-1-phenylethyl]-3-[3-(piperidin-3-ylamino)-1H-pyrazolo[4,3-c]-pyridin-6-yl]urea] | 30.2 nM
12 | C[C@@H](NC(=O)Nc1cc2[nH]nc(NCC3CCNCC3)c2cn1)c1ccccc1 [Example 165, 1-[(1R)-1-phenylethyl]-3-{3-[(piperidin-4-ylmethyl)amino]-1H-pyrazolo[4,3-c]pyridin-6-yl}urea] | 50.2 nM
13 | C[C@@H](NC(=O)Nc1cc2[nH]nc(NC3CNC3)c2cn1)c1ccccc1 [Example 168, 1-[3-(azetidin-3-ylamino)-1H-pyrazolo[4,3-c]-pyridin-6-yl]-3-[(1R)-1-phenylethyl]urea] | 31.7 nM
14 | C[C@@H](NC(=O)Nc1cc2[nH]nc(NC3CC(N(C)C)C3)c2cn1)c1ccccc1 (stereo partly drawn) [Example 169, 1-(3-{[3-(dimethylamino)-cyclobutyl]amino}-1H-pyrazolo[4,3-c]pyridin-6-yl)-3-[(1R)-1-phenylethyl]urea] | 50.2 nM
15 | C[C@@H](NC(=O)Nc1cc2[nH]nc(NC3CCC(N(C)C)CC3)c2cn1)c1ccccc1 (stereo partly drawn) [Example 172, 1-(3-{[4-(dimethylamino)-cyclohexyl]amino}-1H-pyrazolo[4,3-c]pyridin-6-yl)-3-[(1R)-1-phenylethyl]urea] | 31.2 nM
16 | CC(CN1CCOCC1)Nc1n[nH]c2cc(NC(=O)N[C@H](C)c3ccccc3)ncc12 (stereo partly drawn) [Example 175, 1-{3-[(1-methyl-2-morpholin-4-ylethyl)amino]-1H-pyrazolo[4,3-c]pyridin-6-yl}-3-[(1R)-1-phenylethyl]urea] | 33.8 nM
17 | CC(CC1CCCCN1)Nc1n[nH]c2cc(NC(=O)N[C@H](C)c3ccccc3)ncc12 (stereo partly drawn) [Example 176, 1-{3-[(1-methyl-2-piperidin-2-ylethyl)amino]-1H-pyrazolo[4,3-c]pyridin-6-yl}-3-[(1R)-1-phenylethyl]urea] | 38.2 nM
18 | C[C@@H](NC(=O)Nc1cc2[nH]nc(NCC3CC(C(C)(C)O)C3)c2cn1)c1ccccc1 (stereo partly drawn) [Example 177, 1-[3-({[3-(1-hydroxy-1-methyl-ethyl)cyclobutyl]-methyl}amino)-1H-pyrazolo[4,3-c]pyridin-6-yl]-3-[(1R)-1-phenylethyl]urea] | 12 nM

Stronger by IC50, values ahead:

Row | IC50 | SMILES
19 | 1.2 nM | CC(C)N1CCc2nc(NC(=O)N[C@H](C)c3ccccc3)cc3[nH]nc1c23 [Example 142, (R)-1-(3-isopropyl-1,3,4,5-tetrahydropyrazolo[3,4,5-de][1,6]naphthyridin-7-yl)-3-(1-phenylethyl)urea]
20 | 2 nM | CNc1n[nH]c2cc(NC(=O)N[C@@H](c3ccccc3)[C@@H]3CCCO3)ncc12 [Example 144, 1-(3-(methylamino)-1H-pyrazolo[4,3-c]pyridin-6-yl)-3-((S)-phenyl((S)-tetrahydrofuran-2-yl)methyl)urea]
21 | 2.1 nM | CNc1n[nH]c2cc(NC(=O)N[C@@H](c3ccccc3)[C@H]3CCCO3)ncc12 [Example 145, 1-(3-(methylamino)-1H-pyrazolo[4,3-c]pyridin-6-yl)-3-((S)-phenyl((R)-tetrahydrofuran-2-yl)methyl)urea]
22 | 0.8 nM | CCNc1n[nH]c2cc(NC(=O)N[C@@H](c3ccccc3)[C@@H]3CCCO3)ncc12 [Example 148, 1-[3-(ethylamino)-1H-pyrazolo[4,3-c]pyridin-6-yl]-3-{(S)-phenyl[(2S)-tetrahydrofuran-2-yl]methyl}urea]
23 | 0.6 nM | CCNc1n[nH]c2cc(NC(=O)N[C@@H](c3ccccc3)[C@H]3CCCO3)ncc12 [Example 149, 1-[3-(ethylamino)-1H-pyrazolo[4,3-c]pyridin-6-yl]-3-{(S)-phenyl[(2R)-tetrahydrofuran-2-yl]methyl}urea]
24 | 0.9 nM | Nc1n[nH]c2cc(NC(=O)N[C@@H](c3ccccc3)[C@@H]3CCCO3)ncc12 [Example 152, 1-(3-amino-1H-pyrazolo[4,3-c]pyridin-6-yl)-3-{(S)-phenyl[(2S)-tetrahydrofuran-2-yl]methyl}urea]
25 | 0.7 nM | Nc1n[nH]c2cc(NC(=O)N[C@@H](c3ccccc3)[C@H]3CCCO3)ncc12 [Example 153, 1-(3-amino-1H-pyrazolo[4,3-c]pyridin-6-yl)-3-{(S)-phenyl[(2R)-tetrahydrofuran-2-yl]methyl}urea]
26 | 0.7 nM | COC[C@@H](NC(=O)Nc1cc2[nH]nc(NCC3CCC3)c2cn1)c1ccccc1 [Example 156, 1-{3-[(cyclobutyl-methyl)amino]-1H-pyrazolo[4,3-c]-pyridin-6-yl}-3-[(1S)-2-methoxy-1-phenylethyl]urea]
27 | 1.1 nM | COC[C@@H](NC(=O)Nc1cc2[nH]nc(NC3CCOC3)c2cn1)c1ccccc1 (stereo partly drawn) [Example 158, 1-[(1S)-2-methoxy-1-phenylethyl]-3-[3-(tetrahydro-furan-3-ylamino)-1H-pyrazolo[4,3-c]pyridin-6-yl]urea]
28 | 1.8 nM | C[C@@H](NC(=O)Nc1cc2[nH]nc(NCC3CC3)c2cn1)c1ccccc1 [Example 159, 1-{3-[(cyclopropyl-methyl)amino]-1H-pyrazolo[4,3-c]-pyridin-6-yl}-3-[(1R)-1-phenylethyl]urea]
29 | 2.3 nM | C[C@@H](NC(=O)Nc1cc2[nH]nc(NC3CCOC3)c2cn1)c1ccccc1 (stereo partly drawn) [Example 161, 1-[(1R)-1-phenylethyl]-3-[3-(tetrahydrofuran-3-ylamino)-1H-pyrazolo[4,3-c]pyridin-6-yl]urea]
30 | 0.6 nM | CC(C)C(=O)Nc1n[nH]c2cc(NC(=O)N[C@H](C)c3ccccc3)ncc12 [Example 163, 2-methyl-N-[6-({[(1R)-1-phenylethyl]-carbamoyl}amino)-1H-pypyrazolo[4,3-c]-pyridin-3-yl]propanamide]
31 | 1.7 nM | C[C@@H](NC(=O)Nc1cc2[nH]nc(NCC3CCOCC3)c2cn1)c1ccccc1 [Example 166, 1-[(1R)-1-phenylethyl]-3-{3-[(tetrahydro-2H-pyran-4-yl-methyl)amino]-1H-pyrazolo[4,3-c]pyridin-6-yl}urea]
32 | 4.2 nM | C[C@@H](NC(=O)Nc1cc2[nH]nc(NCC3CCCOC3)c2cn1)c1ccccc1 (stereo partly drawn) [Example 167, 1-[(1R)-1-phenylethyl]-3-{3-[(tetrahydro-2H-pyran-3-yl-methyl)amino]-1H-pyrazolo[4,3-c]pyridin-6-yl}urea]
33 | 2.7 nM | COC1CC(CNc2n[nH]c3cc(NC(=O)N[C@H](C)c4ccccc4)ncc23)C1 (stereo partly drawn) [Example 170, 1-(3-{[(3-methoxy-cyclobutyl)methyl]amino}-1H-pyrazolo[4,3-c]-pyridin-6-yl)-3-[(1R)-1-phenylethyl]urea]
34 | 4.1 nM | CC(Nc1n[nH]c2cc(NC(=O)N[C@H](C)c3ccccc3)ncc12)C1CCOCC1 (stereo partly drawn) [Example 171, 1-[(1R)-1-phenylethyl]-3-(3-{[1-(tetrahydro-2H-pyran-4-yl)-ethyl]amino}-1H-pyrazolo[4,3-c]-pyridin-6-yl)urea]
35 | 5.8 nM | CC1=NOC(CNc2n[nH]c3cc(NC(=O)N[C@H](C)c4ccccc4)ncc23)C1 (stereo partly drawn) [Example 173, 1-(3-{[(3-methyl-4,5-dihydro-isoxazol-5-yl)-methyl]amino}-1H-pyrazolo[4,3-c]-pyridin-6-yl)-3-[(1R)-1-phenylethyl]urea]
36 | 4.4 nM | C[C@@H](NC(=O)Nc1cc2[nH]nc(NC3CCCOC3)c2cn1)c1ccccc1 (stereo partly drawn) [Example 174, 1-[(1R)-1-phenylethyl]-3-[3-(tetrahydro-2H-pyran-3-ylamino)-1H-pyrazolo[4,3-c]pyridin-6-yl]urea]
